Test results from the supplement of paper PMC8671470.

Experiments:
Details in all cases: 72 h
SHI-1 [1] = test: cell viability (% survival relative to DMSO control, bortezomib = 0%); higher = less cytotoxic
Procedure, shortened: (§1)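 Seeding density for each of the 10 AML and 5 CML cell lines was titrated to the linear growth range. Cells went into 384-well plates pre-printed in duplicate with compounds at 1, 10, 100, 1000 or 10000 nM and were held for 72 h at 37 °C with 5% CO2. CellTiter-Glo luminescence then provided the readout. Percent survival is expressed relative to vehicle at 100% and a 10 µM positive control at 0%, averaged over duplicates.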

HL-60 [2] = test: as above
Procedure, shortened: as §1

K-562 [3] = test: as above
Procedure, shortened: as §1

KG-1 [4] = test: as above
Procedure, shortened: as §1

ML-2 [5] = test: as above
Procedure, shortened: as §1

HEL [6] = test: as above
Procedure, shortened: as §1

Mono-Mac-6 [7] = test: as above
Procedure, shortened: as §1

KCL-22 [8] = test: as above
Procedure, shortened: as §1

LAMA-84 [9] = test: as above
Procedure, shortened: as §1

MV4-11 [10] = test: as above
Procedure, shortened: as §1

BV-173 [11] = test: as above
Procedure, shortened: as §1

HL-60 [12] = test: cell viability (% survival relative to DMSO control); higher = less cytotoxic
Procedure, shortened: (§2)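 For each screen, HL-60 cells in RPMI 1640 with 10% FBS carried either DMSO or 100 nM of one of three metabolic inhibitors while the full library was applied at five tenfold concentrations, 1–10,000 nM, in duplicate. Plates were 384-well and were kept 72 h at 37 °C, 5% CO2. Viability, measured by CellTiter-Glo, was normalised to wells with DMSO and with 10 μM proteasome inhibitor. Where area under the curve appears, it was fitted by four-parameter log-logistic models in drc and PharmacoGx.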

HL-60 [13] = test: area under dose-response curve (viability, 1 nM-10 uM) (fraction (0-1)); higher = more sensitive
Procedure, shortened: as §2

SHI-1 [14] = test system: SHI-1
Procedure, shortened: (§3)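 The IC50 was derived from log-logistic dose–response fitting. Each of fifteen myeloid leukaemia cell lines, seeded in RPMI 1640 within its linear growth range, was exposed in 384-well plates to five tenfold doses (1 to 10,000 nM) in duplicate for 72 h at 37 °C and 5% CO2. Luminescent ATP viability readings were normalised to vehicle and to a positive control at 10 µM before four-parameter curve fitting.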

HL-60 [15] = test system: HL-60
Procedure, shortened: as §3

K-562 [16] = test system: K-562
Procedure, shortened: as §3

KU-812 = test system: KU-812
Procedure, shortened: as §3

KG-1 [17] = test system: KG-1
Procedure, shortened: as §3

ML-2 [18] = test system: ML-2
Procedure, shortened: as §3

HEL [19] = test system: HEL
Procedure, shortened: as §3

Mono-Mac-6 [20] = test system: Mono-Mac-6
Procedure, shortened: as §3

KCL-22 [21] = test system: KCL-22
Procedure, shortened: as §3

LAMA-84 [22] = test system: LAMA-84
Procedure, shortened: as §3

THP-1 = test system: THP-1
Procedure, shortened: as §3

MV4-11 [23] = test system: MV4-11
Procedure, shortened: as §3

NOMO-1 = test system: NOMO-1
Procedure, shortened: as §3

BV-173 [24] = test system: BV-173
Procedure, shortened: as §3

MOLM-13 = test system: MOLM-13
Procedure, shortened: as §3

c1ccc2c(c1)SCc1c-2[nH]c2ccccc12
Details | area under dose-response curve, co-treatment: AZD3965 100 nM | area under dose-response curve, co-treatment: DMSO vehicle | area under dose-response curve, co-treatment: GSK2194069 100 nM | area under dose-response curve, co-treatment: pictilisib 100 nM | cell viability, 1 nM [%] | cell viability, 10 nM [%] | cell viability, 100 nM [%] | cell viability, 1000 nM [%] | cell viability, 10000 nM [%]
BV-173 [11] | – | – | – | – | 98.6 | 113 | 114 | 27.6 | -0.875
HEL [6] | – | – | – | – | 106 | 102 | 94.6 | 94.9 | 7
HL-60 [2] | – | – | – | – | 100 | 95.7 | 102 | 83 | 23.4
HL-60 [13] | < 0.0301 | < 0.0301 | < 0.0301 | < 0.0301 | – | – | – | – | –
K-562 [3] | – | – | – | – | 100 | 100 | 103 | 108 | 12
KCL-22 [8] | – | – | – | – | 96.1 | 93.2 | 100 | 80.9 | 1.24
KG-1 [4] | – | – | – | – | 104 | 102 | 125 | 34.7 | -0.763
LAMA-84 [9] | – | – | – | – | 106 | 103 | 111 | 109 | 16.6
ML-2 [5] | – | – | – | – | 106 | 110 | 89.8 | 69 | -1.13
MV4-11 [10] | – | – | – | – | 101 | 101 | 111 | 52.8 | -0.521
Mono-Mac-6 [7] | – | – | – | – | 97.8 | 105 | 103 | 95.3 | -0.27
SHI-1 [1] | – | – | – | – | 101 | 96 | 89.1 | 84.7 | 3.75

cell viability [%], HL-60 [12]
Details | 0.001 µM | 0.01 µM | 0.1 µM | 1 µM | 10 µM
co-treatment: AZD3965 100 nM | 80.9 | 94.8 | 107 | 117 | 94.6
co-treatment: DMSO vehicle | 102.4 | 101.01 | 98.13 | 101 | 96.9
co-treatment: GSK2194069 100 nM | 96.7 | 100.7 | 103 | 96.4 | 93.2
co-treatment: pictilisib 100 nM | 90.3 | 86.7 | 104 | 105 | 98.9

Details | IC50 (cell viability) [µM]
BV-173 [24] | 0.646
HEL [19] | 3.3
HL-60 [15] | 2
K-562 [16] | 4.42
KCL-22 [21] | 2.18
KG-1 [17] | 0.76
KU-812 | 2.92
LAMA-84 [22] | 4.96
ML-2 [18] | 1.48
MOLM-13 | 1.97
MV4-11 [23] | 1.06
Mono-Mac-6 [20] | 2.89
NOMO-1 | 3.12
SHI-1 [14] | 2.6
THP-1 | 4.04

C[C@H]1O[C@H](O[C@H]2[C@H](O)[C@@H](O)[C@@H](O[C@H]3[C@H](O)[C@@H](O)C(O)O[C@@H]3CO)O[C@@H]2CO)[C@H](O)[C@@H](O)[C@@H]1N[C@H]1C=C(CO)[C@@H](O)[C@H](O)[C@H]1O (mixture of isomers) [Acarbose]
Details | area under dose-response curve, co-treatment: AZD3965 100 nM | area under dose-response curve, co-treatment: DMSO vehicle | area under dose-response curve, co-treatment: GSK2194069 100 nM | area under dose-response curve, co-treatment: pictilisib 100 nM | cell viability, 1 nM [%] | cell viability, 10 nM [%] | cell viability, 100 nM [%] | cell viability, 1000 nM [%] | cell viability, 10000 nM [%]
BV-173 [11] | – | – | – | – | 95.6 | 99.7 | 110 | 103 | 83.4
HEL [6] | – | – | – | – | 117 | 111 | 114 | 88.8 | 98.8
HL-60 [2] | – | – | – | – | 125 | 111 | 122 | 99.1 | 106
HL-60 [13] | < 0.0301 | < 0.0301 | < 0.0301 | < 0.0301 | – | – | – | – | –
K-562 [3] | – | – | – | – | 111 | 131 | 88.1 | 94.9 | 98.8
KCL-22 [8] | – | – | – | – | 116 | 117 | 112 | 86.5 | 97.2
KG-1 [4] | – | – | – | – | 99.1 | 107 | 93.2 | 105 | 95.7
LAMA-84 [9] | – | – | – | – | 93.4 | 84.7 | 108 | 92.7 | 93.4
ML-2 [5] | – | – | – | – | 104 | 102 | 103 | 94.8 | 95.8
MV4-11 [10] | – | – | – | – | 108 | 73 | 111 | 89.1 | 94.9
Mono-Mac-6 [7] | – | – | – | – | 101 | 95.6 | 102 | 111 | 87
SHI-1 [1] | – | – | – | – | 116 | 120 | 99.8 | 104 | 97.7

cell viability [%], HL-60 [12]
Details | 0.001 µM | 0.01 µM | 0.1 µM | 1 µM | 10 µM
co-treatment: AZD3965 100 nM | 112.2 | 96.77 | 99 | 99.3 | 88.1
co-treatment: DMSO vehicle | 100.2 | 98.3 | 102 | 104 | 97.771
co-treatment: GSK2194069 100 nM | 108.6 | 98.7 | 97.7 | 92.59 | 97.3
co-treatment: pictilisib 100 nM | 105 | 104 | 101 | 96.9 | 102.6

Details | IC50 (cell viability) [µM]
BV-173 [24] | > 10
HEL [19] | > 10
HL-60 [15] | > 10
K-562 [16] | > 10
KCL-22 [21] | > 10
KG-1 [17] | > 10
KU-812 | > 10
LAMA-84 [22] | > 10
ML-2 [18] | > 10
MOLM-13 | > 10
MV4-11 [23] | > 10
Mono-Mac-6 [20] | > 10
NOMO-1 | > 10
SHI-1 [14] | > 10
THP-1 | > 10

CCCC(CCC)C(=O)O [Valproic acid]
cell viability [%]
Details | 1 nM | 10 nM | 100 nM | 1000 nM | 10000 nM
BV-173 [11] | 88.5 | 93.5 | 87.8 | 104 | 90.6
HEL [6] | 119 | 103 | 94.5 | 108 | 106
HL-60 [2] | 87.3 | 96.2 | 99.2 | 87.9 | 103
K-562 [3] | 107 | 95.7 | 98.6 | 109 | 112
KCL-22 [8] | 108 | 94.1 | 96.2 | 127 | 95.5
KG-1 [4] | 90.2 | 98.7 | 93 | 90.4 | 108
LAMA-84 [9] | 106 | 91.7 | 96.2 | 102 | 106
ML-2 [5] | 106 | 95.6 | 93 | 99.3 | 91.5
MV4-11 [10] | 111 | 86.6 | 102 | 96.6 | 97.5
Mono-Mac-6 [7] | 96.3 | 98.2 | 98.3 | 105 | 99.1
SHI-1 [1] | 106 | 94.8 | 95.9 | 92.5 | 101

cell viability [%], HL-60 [12]
Details | 0.001 µM | 0.01 µM | 0.1 µM | 1 µM | 10 µM
co-treatment: AZD3965 100 nM | 101.96 | 103 | 94.7 | 97.8 | 106
co-treatment: DMSO vehicle | 102 | 99.9 | 98.5 | 96.68 | 105
co-treatment: GSK2194069 100 nM | 95.2 | 106 | 98.1 | 93.9 | 106
co-treatment: pictilisib 100 nM | 98.6 | 101 | 95 | 89.6 | 101

Details | IC50 (cell viability) [µM]
BV-173 [24] | > 10
HEL [19] | > 10
HL-60 [15] | > 10
K-562 [16] | > 10
KCL-22 [21] | > 10
KG-1 [17] | > 10
KU-812 | > 10
LAMA-84 [22] | > 10
ML-2 [18] | > 10
MOLM-13 | > 10
MV4-11 [23] | > 10
Mono-Mac-6 [20] | > 10
NOMO-1 | > 10
SHI-1 [14] | > 10
THP-1 | > 10
